Assay results from article PMC4494766 (Monatshefte Fur Chemie, 2011).
In brackets after ≈: the same amount, converted by molar mass.

System: M. tuberculosis wild-type strain sp. 210 resistant to PAS, INH, ETB and RFP
Assay: Tuberculostatic activity, test-tube successive dilution in Youmans' medium
Format: cell-based
Details: Mycobacterium tuberculosis

| Compound | MIC |
| --- | --- |
| COc1ccc(C(=O)NN=C(SC)SC)cc1 [Compound 11, Dimethyl 4-methoxybenzoylcarbonohydrazonodithioate] | 25 µg/mL (≈ 92.5 µM) |
| CSC(=NNC(=O)c1ccc(Cl)cc1Cl)SC [Compound 4, Dimethyl 2,4-dichlorobenzoylcarbonohydrazonodithioate] | 50 µg/mL (≈ 162 µM) |
| CSC(=NNC(=O)c1ccc(Cl)c(Cl)c1)SC [Compound 5, Dimethyl 3,4-dichlorobenzoylcarbonohydrazonodithioate] | 12.5 µg/mL (≈ 40.4 µM) |
| COc1ccc(CC(=O)NN=C(SC)SC)cc1OC [Compound 13, Dimethyl 2-(3,4-dimethoxyphenyl)acetylcarbonohydrazonodithioate] | 50 µg/mL (≈ 159 µM) |
| CSC(=NNC(=O)c1ccccc1[N+](=O)[O-])SC [Compound 6, Dimethyl 2-nitrobenzoylcarbonohydrazonodithioate] | 50 µg/mL (≈ 175 µM) |
| CSC(=NNC(=O)c1ccc(O)cc1)SC [Compound 10, Dimethyl 4-hydroxybenzoylcarbonohydrazonodithioate] | 25 µg/mL (≈ 97.5 µM) |
| CSC(=NNC(=O)c1ccccc1Cl)SC [Compound 2, Dimethyl 2-chlorobenzoylcarbonohydrazonodithioate] | 50 µg/mL (≈ 182 µM) |
| COc1cc(C(=O)NN=C(SC)SC)cc(OC)c1OC [Compound 12, Dimethyl 3,4,5-trimethoxybenzoylcarbonohydrazonodithioate] | 50 µg/mL (≈ 151 µM) |
| CSC(=NNC(=O)c1ccccc1O)SC [Compound 8, Dimethyl 2-hydroxybenzoylcarbonohydrazonodithioate] | 25 µg/mL (≈ 97.5 µM) |
| CSC(=NNC(=O)c1ccc(Cl)cc1)SC [Compound 3, Dimethyl 4-chlorobenzoylcarbonohydrazonodithioate] | 25 µg/mL (≈ 91 µM) |
| CSC(=NNC(=O)c1cccc(O)c1)SC [Compound 9, Dimethyl 3-hydroxybenzoylcarbonohydrazonodithioate] | 25 µg/mL (≈ 97.5 µM) |
